# Measured values taken from patent publication US10501421B1, “Substituted benzimidazoles as modulators of Ras signaling” (VANDERBILT UNIVERSITY, priority 2017, dated 2019).
# Where a name gives a salt, the structure may show the parent alone.
# Tests used:
# [1] = target: Ras GEF SOS (Son of Sevenless) (Homo sapiens, UniProt Q07889); test: SOS-mediated nucleotide exchange on Ras (BODIPY-GDP fluorescence); assay type: biochemical; conditions: SOS-mediated exchange of BODIPY-GDP for GTP on Ras
# How it was run: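 Ras loaded with BODIPY-GDP was mixed in buffer with test compound, then GTP and SOS. Fluorescence change from labeled GDP/GTP exchange was followed over time, and rates came from single-exponential fits. EC50 came from a four-parameter fit of mean rate against compound concentration.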
# Son of Sevenless (SOS) = target: T1, Son of Sevenless (SOS) (Homo sapiens, UniProt Q07889); test: Binding to SOS, fluorescence polarization anisotropy (FPA) probe displacement; conditions: displacement of FITC-conjugated probe (Example 285), affinity calculated from IC50
# T1 sequence (Q07889 564-1049 limits assumed): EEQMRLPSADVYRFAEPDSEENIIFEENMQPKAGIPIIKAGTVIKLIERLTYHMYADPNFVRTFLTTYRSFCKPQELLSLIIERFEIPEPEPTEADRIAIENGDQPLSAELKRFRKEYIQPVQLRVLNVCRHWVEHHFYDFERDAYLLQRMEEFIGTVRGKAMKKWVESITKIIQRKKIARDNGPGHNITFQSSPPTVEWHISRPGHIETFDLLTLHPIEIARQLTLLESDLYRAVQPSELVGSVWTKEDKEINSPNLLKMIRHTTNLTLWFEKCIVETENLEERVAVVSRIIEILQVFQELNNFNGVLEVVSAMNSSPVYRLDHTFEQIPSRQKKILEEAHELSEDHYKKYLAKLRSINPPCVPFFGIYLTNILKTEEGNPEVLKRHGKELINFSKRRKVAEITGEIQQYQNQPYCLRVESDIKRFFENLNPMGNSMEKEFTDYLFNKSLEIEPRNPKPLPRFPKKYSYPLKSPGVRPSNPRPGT
# Procedure: Compounds of the present invention were tested for their ability to bind to the Ras guanine exchange factor (GEF) Son of Sevenless (SOS). Binding to SOS was measured using a Fluorescence polarization anisotropy (FPA) assay that assesses the ability of a test compound to displace a fluorescent FITC-conjugated compound (Example 285). Briefly, the labeled probe compound is incubated with SOS in buffer. Changes in anisotropy indicative of displacement of the labeled probe for a test compound are assessed over a dose range of test compound. Data was analyzed by plotting fluorescence anisotropy values as a function of compound concentration. IC50 values were determined using a four-parameter dose-response (variable slope) and binding affinities were calculated from this IC50 value. This assay is performed in a method analogous to the assay disclosed in: Burns, M. C.; Sun, Q.; Daniels, R. N.; Camper, D. V.; Kennedy, J. P.; Phan, J.; Olejniczak, E. O.; Lee, T.; Waterson, A. G.; Rossanese, O. W.; Fesik, S. W. “Approach for targeting Ras with small molecules that activate SOS-mediated nucleotide exchange” Proc. Natl. Acad. Sci. 2014; 11(9): 3401-3406. PMCID: PMC3948241.
# Chain of Ras GEF SOS (Son of Sevenless) (P01112 1-166 partner limits assumed, one chain of several): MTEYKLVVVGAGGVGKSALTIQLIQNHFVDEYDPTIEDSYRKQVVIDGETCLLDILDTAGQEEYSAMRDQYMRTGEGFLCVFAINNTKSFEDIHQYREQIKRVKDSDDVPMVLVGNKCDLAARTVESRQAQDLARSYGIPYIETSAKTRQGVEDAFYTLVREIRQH
SMILES,EC50 [1] [µM],Ki (Son of Sevenless (SOS)) [µM]
"CNCCN(C)c1nc2cc(C)c(C)cc2n1Cc1cc(C)c(F)c(C)c1 [Example 45, N^1-(1-(4-fluoro-3,5-dimethylbenzyl)-5,6-dimethyl-1H-benzo[d]imidazol-2-yl)-N^1,N^2-dimethylethane-1,2-diamine trifluoroacetate]",5 to 30,> 5
"Fc1ccc(Cn2c(C3CCNCC3)nc3ccccc32)cc1 [Example 56, 1-(4-fluorobenzyl)-2-(piperidin-4-yl)-1H-benzo[d]imidazole trifluoroacetate]",5 to 30,> 5
"Clc1ccc(Cn2c(C3CCNCC3)nc3ccccc32)cc1 [Example 58, 1-(4-chlorobenzyl)-2-(piperidin-4-yl)-1H-benzo[d]imidazole trifluoroacetate]",5 to 30,> 5
"Fc1ccc(Cn2c(N3CCNCC3)nc3ccc(C4CC4)cc32)cc1Cl [Example 62, 1-(3-chloro-4-fluorobenzyl)-6-cyclopropyl-2-(piperazin-1-yl)-1H-benzo[d]imidazole trifluoroacetate]",5 to 30,> 5
"CCc1cc2c(cc1C)nc(N1CCNCC1)n2Cc1ccc(F)c(Cl)c1 [Example 66, 1-(3-chloro-4-fluorobenzyl)-6-ethyl-5-methyl-2-(piperazin-1-yl)-1H-benzo[d]imidazole trifluoroacetate]",5 to 30,> 5
"CCc1cc2c(cc1C)nc(N1CCNCC1)n2Cc1ccc(F)c(CC)c1 [Example 67, 6-ethyl-1-(3-ethyl-4-fluorobenzyl)-5-methyl-2-(piperazin-1-yl)-1H-benzo[d]imidazole trifluoroacetate]",5 to 30,> 5
"Cc1cc(C2=CCNCC2)c2nc(N3CCNCC3)n(Cc3cc(C)c(F)c(C)c3)c2c1 [Example 103, 1-(4-fluoro-3,5-dimethylbenzyl)-6-methyl-2-(piperazin-1-yl)-4-(1,2,3,6-tetrahydropyridin-4-yl)-1H-benzo[d]imidazole]",1 to 5,< 0.5
"Cc1cc2c(nc(N3CCNCC3)n2Cc2ccc(Cl)cc2)c(-c2ccccc2)c1C [Example 105, 1-(4-chlorobenzyl)-5,6-dimethyl-4-phenyl-2-(piperazin-1-yl)-1H-benzo[d]imidazole trifluoroacetate]",1 to 5,> 5
"CCc1cc(Cn2c(NCCN)nc3c(-c4ccccc4Cl)c(C)c(C)cc32)ccc1Cl [Example 112, N^1-(1-(4-chloro-3-ethylbenzyl)-4-(2-chlorophenyl)-5,6-dimethyl-1H-benzo[d]imidazol-2-yl)ethane-1,2-diamine trifluoroacetate]",5 to 30,1 to 5
"CCc1cc(Cn2c(NCCN)nc3c(-c4c(C)nn(C)c4C)c(C)c(C)cc32)ccc1Cl [Example 115, N^1-(1-(4-chloro-3-ethylbenzyl)-5,6-dimethyl-4-(1,3,5-trimethyl-1H-pyrazol-4-yl)-1H-benzo[d]imidazol-2-yl)ethane-1,2-diamine trifluoroacetate]",5 to 30,> 5
"Cc1ccccc1-c1c(C)c(C)cc2c1nc(NCCN)n2Cc1cccc(C#N)c1 [Example 116, 3-((2-((2-aminoethyl)amino)-5,6-dimethyl-4-(o-tolyl)-1H-benzo[d]imidazol-1-yl)methyl)benzonitrile trifluoroacetate]",1 to 5,1 to 5

# Continued, values first:
EC50 [1] [µM],Ki (Son of Sevenless (SOS)) [µM],SMILES
1 to 5,1 to 5,"Cc1ccc2nc(N3CCNCC3)n(Cc3ccc(F)c(Cl)c3)c2c1 [Example 61, 1-(3-chloro-4-fluorobenzyl)-6-methyl-2-(piperazin-1-yl)-1H-benzo[d]imidazole trifluoroacetate]"
< 1,0.5 to 1,"Fc1ccc(Cn2c(N3CCNCC3)nc3ccc(Br)cc32)cc1Cl [Example 63, 6-bromo-1-(3-chloro-4-fluorobenzyl)-2-(piperazin-1-yl)-1H-benzo[d]imidazole trifluoroacetate]"
1 to 5,0.5 to 1,"Cc1cc2nc(NCCN)n(Cc3ccc(F)c(Cl)c3)c2cc1Br [Example 64, N^1-(6-bromo-1-(3-chloro-4-fluorobenzyl)-5-methyl-1H-benzo[d]imidazol-2-yl)ethane-1,2-diamine trifluoroacetate]"
1 to 5,1 to 5,"C=Cc1cc2c(cc1C)nc(NCCN)n2Cc1ccc(F)c(Cl)c1 [Example 65, N^1-(1-(3-chloro-4-fluorobenzyl)-5-methyl-6-vinyl-1H-benzo[d]imidazol-2-yl)ethane-1,2-diamine trifluoroacetate]"
< 1,0.5 to 1,"Cc1cc2nc(NCCN)n(Cc3ccc(F)c(Cl)c3)c2cc1Cl [Example 69, N^1-(6-chloro-1-(3-chloro-4-fluorobenzyl)-5-methyl-1H-benzo[d]imidazol-2-yl)ethane-1,2-diamine trifluoroacetate]"
1 to 5,1 to 5,"Cc1cc2c(cc1Br)nc(N1CCNCC1)n2Cc1ccc(F)c(Cl)c1 [Example 70, 5-bromo-1-(3-chloro-4-fluorobenzyl)-6-methyl-2-(piperazin-1-yl)-1H-benzo[d]imidazole trifluoroacetate]"
1 to 5,1 to 5,"NCCNc1nc2ccc(C(F)(F)F)cc2n1Cc1ccc(F)c(Cl)c1 [Example 72, N^1-(1-(3-chloro-4-fluorobenzyl)-6-(trifluoromethyl)-1H-benzo[d]imidazol-2-yl)ethane-1,2-diamine trifluoroacetate]"
< 1,0.5 to 1,"Fc1ccc(Cn2c(N3CCNCC3)nc3ccc(Cl)cc32)cc1Cl [Example 73, 6-chloro-1-(3-chloro-4-fluorobenzyl)-2-(piperazin-1-yl)-1H-benzo[d]imidazole trifluoroacetate]"
< 1,0.5 to 1,"NCCNc1nc2ccc(Cl)cc2n1Cc1ccc(F)c(Cl)c1 [Example 74, N^1-(6-chloro-1-(3-chloro-4-fluorobenzyl)-1H-benzo[d]imidazol-2-yl)ethane-1,2-diamine trifluoroacetate]"
1 to 5,1 to 5,"Nc1ccccc1-c1cccc2c1nc(N1CCNCC1)n2Cc1ccc(F)c(Cl)c1 [Example 83, 2-(1-(3-chloro-4-fluorobenzyl)-2-(piperazin-1-yl)-1H-benzo[d]imidazol-4-yl)aniline trifluoroacetate]"
1 to 5,1 to 5,"Fc1cc(F)cc(Cn2c(N3CCNCC3)nc3c(-c4ccccc4F)cccc32)c1 [Example 90, 1-(3,5-difluorobenzyl)-4-(2-fluorophenyl)-2-(piperazin-1-yl)-1H-benzo[d]imidazole]"
1 to 5,> 5,"NCCc1cccc2c1nc(N1CCNCC1)n2Cc1ccc(F)c(Cl)c1 [Example 98, 2-(1-(3-chloro-4-fluorobenzyl)-2-(piperazin-1-yl)-1H-benzo[d]imidazol-4-yl)ethan-1-amine trifluoroacetate]"
1 to 5,1 to 5,"Cc1cc2c(nc(N3CCNCC3)n2Cc2ccc(F)c(Cl)c2)c(CCN)c1C [Example 101, 2-(1-(3-chloro-4-fluorobenzyl)-5,6-dimethyl-2-(piperazin-1-yl)-1H-benzo[d]imidazol-4-yl)ethan-1-amine trifluoroacetate]"
1 to 5,> 5,"Cc1cc2c(nc(N3CCNCC3)n2Cc2cc(C)c(F)c(C)c2)c(CCN)c1C [Example 102, 2-(1-(4-fluoro-3,5-dimethylbenzyl)-5,6-dimethyl-2-(piperazin-1-yl)-1H-benzo[d]imidazol-4-yl)ethan-1-amine trifluoroacetate]"
